Assay results as given in patent US20030125363A1, “Riluzole and alpha-tocopherol combination” (priority 1998, published 2003).

Test system: patients suffering from ALS
[1] = after 12 months of treatment, Munsat functional states

Protocol: The study was carried out in 289 patients in total aged over 18 years, who have been suffering from ALS for less than 5 years and in whom the vital capacity/theoretical normal vital capacity ratio is greater than or equal to 60% (the vital capacity is a routine conventional measurement of the respiratory function also called lung function test).
The patients are divided into 2 groups:
group 1: 145 patients treated with 100 mg/day of riluzole by the oral route and 1000 mg/day of α-tocopherol by the oral route,
group 2: 144 patients treated with 100 mg/day of riluzole by the oral route and placebo.
The patients are monitored for a year. The results are measured on functional scales (Munsat's functional states (RIVIERE et al., Arch. Neurol., 55, 526 (1998)), a visual analog scale (VAS) for fatigability (LACOBLEZ et al., The Lancet, 347, 1425 (1996); BENSIMON et al., New England Journal of Medicine, 330, 585 (1994)) and plasma concentration of malondialdehyde, a biochemical marker for oxidative stress (FAVIER, Analysis of free radicals in biological systems, Birk Hauser, Basel/Switzerland, 1995 p. 100-117).
The Munsat functional state A relates to patients in an average or mild state:
average state: average deficiency in 3 regions (speech, arm and leg), functionally independent in speech, activities of the upper extremities in daily and ambulatory life,
mild state: average deficiency in 3 regions or mild to severe deficiency in one region while the other two regions are normal or slightly affected.
The Munsat functional state B relates to patients in the severe or final state:
severe state: need for assistance in 2 or 3 regions, dysarthric speech and/or patients requiring assistance to walk and/or requiring assistance for the activities of the upper extremities in daily life,
final state: nonfunctional use of at least 2 regions and mild or nonfunctional use of the third region.
The progression of the functional states A and B is determined at the time of inclusion (M0) and after 12 months of treatment (M12).

Nc1nc2ccc(OC(F)(F)F)cc2s1 [RILUZOLE AND PLACEBO, 2-amino-6-trifluoromethoxybenzothiazole]
Condition after treatment (M12): state A (Munsat functional state A (average or mild), after 12 months of treatment, riluzole 100 mg/day oral, α-tocopherol 1000 mg/day oral or placebo): 56 number of patients | Condition on inclusion (M0): state A (Munsat functional state A (average or mild), baseline at inclusion M0, oral treatment): 109 number of patients | Condition after treatment (M12): state B (Munsat functional state B (severe or final), after 12 months of treatment, riluzole 100 mg/day oral, α-tocopherol 1000 mg/day oral or placebo): 63 number of patients | Condition on inclusion (M0): state B (Munsat functional state B (severe or final), baseline at inclusion M0, oral treatment): 10 number of patients | patients who did not exhibit any change [1]: 66 patients | patients who did not exhibit any change (percent) [1]: 55.3% | patients who exhibited a worsening of the disease [1]: 53 patients | patients who exhibited a worsening of the disease (percent) [1]: 44.5%
